For experiment [1], the system named is OsAMT1.1 and OsGS1.2 mRNA. The experiment is described as follows: qRT-PCR relative root mRNA abundance in plants treated with GA and/or PAC. The class given is in vivo, rice. To be noted: FIG. 4b. The text has this: (§1) Data shown as mean±s.e.m. (n=9). b, Relative root mRNA abundance in plants treated with GA and/or paclobutrazol (PAC). Data shown as mean±s.e.m. (n=3). c, Extent of ChIP-PCR OsGRF4-mediated enrichment of GCGG-containing promoter fragments from OsAMT1.1 (fragment 5) and OsGS1.2 (fragment 2) (shown in FIG. 2i) varies in response to treatment with GA and/or PAC. Data shown as mean±s.e.m. (n=3). d, BiFC assays reveal mutual interactions between SLR1, OsGRF4 and OsGIF1 in nuclei of tobacco leaf epidermal cell nuclei. Scale bar, 60 μm. e, Co-IP experiments with Flag-tagged SLR1 and HA-tagged OsGRF4 or HA-tagged OsGIF1. f, FRET images. Donor group: OsGIF1-CFP only; Acceptor group: OsGRF4-YFP only; FRET groups: OsGIF1-CFP and OsGRF4-YFP with and without SLR1. Scale bar, 200 μm. g, Mean N-FRET data for OsGIF1-CFP and OsGRF4-YFP channels. Data shown as mean±s.e.m. (n=6). […] OsGRF4-activated promotion of pOsAMT1.1 and pOsGS1.2 promoter::Luciferase fusion constructs is enhanced by OsGIF1 and inhibited by SLR1. Data shown as mean±s.e.m. (n=6). Statistical analyses used Duncan's multiple range tests, the same lowercase letter denotes non-significant difference between means (P>0.05; panels a-c, and i).
Total RNAs were extracted from different rice plant organs using the TRIzol reagent (Invitrogen), and then treated with RNase-free DNase I (Invitrogen) according to the manufacturer's protocol. […]

Experiment [2] concerns OsAMT1.1 and OsGS1.2 promoters. The experiment is described as follows: ChIP-PCR OsGRF4-mediated enrichment of GCGG-containing promoter fragments. Conditions: treated with GA and/or PAC; FIG. 4c. The class given is in vivo, rice.
Text: as §1, with “Statistical analyses used Duncan's multiple range tests, the same lowercase letter denotes non-significant difference between means (P>0.05; panels a-c, and i).” left out
˜2 g of two-week-old seedlings of transgenic p35S::flag-OsGRF4^ngr2 rice plants were fixed with 1% formaldehyde under vacuum for 15 min at 20-25° C., and then homogenized in liquid nitrogen. […] The reverse-crosslinked and precipitated DNA then served as template for quantitative RT-PCR.

For experiment [3], the system named is NJ6 and NJ6-sd1 rice plants. As to the kind of experiment: 15N uptake analysis (root 15NH4+ uptake rate) in rice plants treated with GA and/or PAC. The class given is in vivo. To be noted: FIG. 4a; for 15NH4+ uptake rate: 100 μM GA (GA3) and/or 2 μM paclobutrazol (PAC).
Text: as §1
Hydroponic culture conditions were modified from those of Liu (2004)^32. Seeds were disinfected in 20% sodium hypochlorite solution for 30 min, thoroughly washed with deionized water, and then germinated in moist Perlite. 7-day-old seedlings were then selected and transplanted to PVC pots containing 40 L+N nutrient solution (1.25 mM NH4NO3, 0.5 mM NaH2PO4·2H2O, 0.75 mM K2SO4, 1 mM CaCl2), 1.667 mM MgSO4.7H2O, 40 μM Fe-EDTA (Na), 19 μM H3BO3, 9.1 μM MnSO4·H2O, 0.15 μM ZnSO4·7H2O, 0.16 μM CuSO4, and 0.52 μM […], pH 5.5). […]
Following growth in hydroponic culture for 4 weeks, rice root ^15NO3^− and ^15NH4^+ influx measurements were as described elsewhere^37,38. […] Roots and shoots were dried overnight at 80° C., and the ^15N content was measured using the Isoprime 100 (Elementar, Germany).

Experiment [4] has as its system Glutamine synthase. As to the kind of experiment: Glutamine synthase (GS) activity in roots and shoots of treated rice plants. It is filed as in vivo. To be noted: roots and shoots of 2-week-old rice plants; 100 μM GA (GA3); FIG. 13. As to the method: Data shown as mean±s.e.m. (n=3). b, GS activities in shoots of plants treated with 100 μM GA (GA3) and/or 2 μM paclobutrazol (PAC), genotypes as indicated. Data shown as mean±s.e.m. (n=3).
Glutamine synthase and nitrate reductase activities were respectively determined with the Glutamine Synthetase Kit (Solarbio LIFE SCIENCES, BC0910) and the Nitrate Reductase Kit (Solarbio LIFE SCIENCES, BC0080) following the manufacturer's instructions.

In experiment [5] the test system is pOscycA1;1 and pOscdc2Os-3 promoters. As to the kind of experiment: Transient transactivation assay (promoter::Luciferase) in rice protoplasts. It is filed as cell-based. Conditions: FIG. 5f. The source says:
Data shown as mean±s.e.m. (n=3). Abundances expressed relative to the level in NJ6-sd1. b, ChIP-PCR assays. Diagram depicts the OsPsbS1, OsTPS1 and OsSWEET11 promoters and regions used for ChIP-PCR. c, Transactivation assays. Data shown as mean±s.e.m. (n=9). d, Relative abundances of mRNAs transcribed from cell-cycle regulatory genes. Data shown as mean±s.e.m. (n=3). Abundances expressed relative to the level in NJ6-sd1. e, ChIP-PCR assays. Diagram depicts the OscycA1.1 and Oscdc2Os-3 promoters and regions used for Chl P-PCR. f, Transactivation assays. Data shown as mean±s.e.m. (n=12). Statistical analyses used Duncan's multiple range tests, the same lowercase letter denotes a non-significant difference between means (P>0.05).
˜3-kb DNA promoter fragments from each of OsAMT1.1, OsAMT1.2, OsGS1.2, OsGS2, OsNADH-GOGAT2, OsFd-GOGAT, OsCAB1, OsTPS1, OsSWEET11, OscycA1;1 or Oscdc2Os-3 were amplified from NJ6, and then subcloned into a pUC19 vector containing the firefly LUC reporter gene driven by the 35S minimal TATA box and 5×GAL4 binding elements, thus generating reporter plasmids containing specific promoters fused to LUC. The full-length OsGRF4 cDNA was amplified and fused to sequence encoding GAL4BD, thus generating the effector plasmid pRTBD-OsGRF4. Transient transactivation assays were performed using rice protoplasts as described elsewhere^36. […]

Experiment [6] relates to OsGRF4 mRNA. As to the kind of experiment: OsGRF4 mRNA abundance, effect of GA and PAC. The class given is in vivo, rice. Conditions: FIG. 15e, f. The source says: In the absence of GA, SLR1 inhibits OsGRF4-OsGIF1 promotion of OsGRF4 transcription. In the presence of GA, SLR1 is destroyed via proteasome-mediated degradation, this promoting OsGRF4-OsGIF1 activated OsGRF4 transcription.
Total RNAs were extracted from different rice plant organs using the TRIzol reagent (Invitrogen), and then treated with RNase-free DNase I (Invitrogen) according to the manufacturer's protocol. Full-length cDNA was then reverse-transcribed using a cDNA synthesis kit (TRANSGEN, AE311). Subsequent qRT-PCR was performed according to the manufacturer's instructions (TRANSGEN, AQ101), using three independent RNA preparations as biological replicates. Rice Actin2 gene transcripts were used as a reference.

Regarding `CC(C)(C)[C@@H](O)[C@@H](Cc1ccc(Cl)cc1)n1cncn1` (racemic) [PAC, paclobutrazol], the “OsAMT1.1 and OsGS1.2 mRNA abundances” value in experiment [1] is given as “reduced”. Moreover, in experiment [2], the “ChIP-PCR enrichment of GCGG motif-containing fragments from the OsAMT1.1 and OsGS1.2 promoters” value is given as “reduces”. Also, the “15NH4+ uptake rate” value in experiment [3] is recorded as “reduces”.

As for `C=C1C[C@]23C[C@@]1(O)CC[C@H]2[C@@]12C=C[C@H](O)[C@@](C)(C(=O)O1)[C@H]2[C@@H]3C(=O)O` [GA, Gibberellic acid], in experiment [4], the GS activity result is “promotes”. In addition, the “OsGRF4-OsGIF1 complex activation of transcription from pOscycA1;1 and pOscdc2Os-3 promoters” value in experiment [5] is “promotes”. Further, in experiment [1], the “OsAMT1.1 and OsGS1.2 mRNA abundances” value is “increased”. Besides, the “OsGRF4 mRNA abundance” value in experiment [6] is reported as “GA-regulated”. For the same molecule, the “ChIP-PCR enrichment of GCGG motif-containing fragments from the OsAMT1.1 and OsGS1.2 promoters” value in experiment [2] is “promotes”. Also, the “15NH4+ uptake rate” value in experiment [3] was “promotes”. Further, in experiment [3] (GA together with PAC), the “effect on the PAC-caused reduction of 15NH4+ uptake” value is recorded as “abolishes this effect”.

These data come from patent publication US11873499B2, “Methods of increasing nutrient use efficiency” (Institute of Genetics and Developmental Biology Chinese …, priority 2018, dated 2024).
